Experimental data from patent US20230235327A1, “A DBAIT MOLECULE IN COMBINATION WITH KRAS INHIBITOR FOR THE TREATMENT OF CANCER” (ONXEO, priority 2020, published 2023).

What was measured:
Type in all cases: cell-based
NCI-H23 cells [1] = experiment: βgal staining (senescence detection)
Description: Slow cycling/senescent drug-tolerant cells were identified using Senescence detection kit according to the manufacturer instructions (Abcam; ab65351). Briefly, cells were seeded in 12-well culture plates and incubated overnight at 37° C. Cells were then washed twice with PBS, fixed during 10 minutes with 0.5 ml of Fixative solution at room temperature, washed twice with PBS and then stained using 0.5 ml of the Staining solution mix overnight at 37° C. Cells are then analyzed under microscope for development of blue color.

NCI-H23 cells [2] = experiment: Flow cytometry of p16, p21, pPERK and transferrin receptor
Description: NCI-H23 were seeded in T25 flasks at 4.105 cells per flask and then treated for 24 h with AsiDNA™ at 100 nM or 5 μM for 24 hours. For intracellular staining (pPERK and CDK p16/CDK p21, mTOR, Bcl-2 staining), cells were washed, then fixed in PBS/70% Ethanol during at least 1 hour at 4° C. Cells were then washed, permeabilized with PBS/0.2% TritonX-100 solution at RT for 30 min, and saturated with PBS/2% Bovine Serum Albumin (BSA) solution at RT for 10 min. Then, cells were washed with PBS and incubated 1 hour with respectively, FITC-conjugated anti pPERK (Biorbyt, UK, 1:120), Alexa647-conjugated anti-CDK p16 (Cell signaling, Danvers Mass., USA, 1:50), Alexa488-conjugated anti-CDK p21 (Cell signaling, Danvers Mass., USA, 1:50), Alexa488-conjugated anti-mTOR (Cell signaling, Danvers Mass., USA, 1:50), Alexa647-conjugated anti-Bcl-2 (Cell signaling, Danvers Mass., USA, 1:50) before flow cytometry analysis (Guava EasyCyte 12H, Luminex, Germany). For cell-surface receptors staining with a PE-conjugated anti-transferrin receptor antibody (Thermofisher, Waltham Mass., USA, 1:20). Stained cells were then washed with PBS and fluorescence intensities were acquired with a Guava EasyCyte 12H flow cytometer (Luminex, Germany). Data were analyzed using FlowJo software (Tree Star, CA, USA), cells were harvested and washed directly after treatment end, and then incubated for 1 hour at 4° C.

NCI-H23 cells [3] = experiment: Selection of resistant populations, cell growth by cell counting under continuous treatment
Description: Cell cultures were performed with non-small cell lung (NSCLC) cancer cell line NCI-H23, a KRAS^G12C mutant cell line (heterozygous mutation). The NCI-H23 cell line was purchased from the ATCC. Cells were grown according to the supplier's instructions and maintained at 37° C. in a humidified atmosphere at 5% CO2. Medium was renewed twice a week and cells were passed when the confluence reached 70-80% depending on cell lines. Each cell line was generally kept in passage for no more than 2 months.
(§1) At least 3 to 6 independent populations were treated for each condition. Drugs were renewed twice a week to maintain a high pressure of resistance selection. Cells were harvested, washed and counted approximately ones a week after staining with 0.4% trypan blue (Sigma Aldrich, Saint-Louis, USA) using an automated cell counter (EVE™-Nanoentek).
Cells were seeded in T75 flasks with 5.10^5 cells per flask and incubated 24 hours at 37° C. before addition of AMG-510 (20 μM) with or without AsiDNA (doses ranging from 100 nM to 2500 nM). AsiDNA was added either concomitantly and continuously with the KRAS^G12C inhibitor or two weeks from the AMG-510 treatment start. At least 3 to 6 independent populations were treated for each condition. Drugs were renewed twice a week to maintain a high pressure of resistance selection. Cells were harvested, washed and counted approximately ones a week after staining with 0.4% trypan blue (Sigma Aldrich, Saint-Louis, USA) using an automated cell counter (EVE™-Nanoentek).

MIA PaCa-2 cells = experiment: Selection of resistant populations, cell survival by cell counting; conditions: MIA PaCa-2, continuous 1 μM
Description: Cells were grown according to the supplier's instructions and maintained at 37° C. in a humidified atmosphere at 5% CO2. Medium was renewed twice a week and cells were passed when the confluence reached 70-80% depending on cell lines. Each cell line was generally kept in passage for no more than 2 months.
as §1

[4] = AMG-510 (20 μM) induced senescent cells vs parental cell line
[5] = NCI-H23 residual cells under treatment vs parental

## C=CC(=O)N1CCN(c2nc(=O)n(-c3c(C)ccnc3C(C)C)c3nc(-c4c(O)cccc4F)c(F)cc23)[C@@H](C)C1 [AMG-510]
NCI-H23 cells [1]; NCI-H23, Day 17 of treatment
  β-gal positive staining, cells in a senescent state: 50%
NCI-H23 cells [1]; NCI-H23, Day 27 of treatment
  β-gal positive staining, cells in a senescent state: 10%
NCI-H23 cells [1]; NCI-H23, day 10 of treatment
  β-gal positive staining, cells in a senescent state: 90%
NCI-H23 cells [2]; [4]
  pPERK level: increase
  transferrin receptor level: increase
NCI-H23 cells [2]; [5]
  p16 expression: increases
  p21 expression: increases
NCI-H23 cells [3]; NCI-H23, AMG-510 20 μM or MRTX-849 1 μM alone
  resistance acquired under continuous treatment: de-novo resistance
NCI-H23 cells [3]; NCI-H23, continuous AMG-510 20 μM alone
  time from which cells restarted to divide and entered a proliferative state: two to three
NCI-H23 cells [3]; NCI-H23, continuous high dose/IC90, two first weeks of treatment
  initial sensitivity of cells to the inhibitor: very sensitive
MIA PaCa-2 cells
  time to emergence of acquired resistance after treatment start: ~1 month
